In patent publication US20020162794A1, “Anaerobic digestion” (priority 2001, published 2002):
Several values for one entry are separate records, joined by “and”; a condition that tells them apart may be missing. Equal values may be shown once.

Tested on: mixed culture from a publicly owned anaerobic digester (domestic sewage sludge)
Assay: Chemical Oxygen Demand (COD) of batch anaerobic digester reactors
Conditions: for COD Concentration: 7/1/99 run (Tables 5, 6)
Protocol: Two tests were run in which sodium formate in concentrations ranging from a few parts per million (ppm) up to ten percent (10%) on a mass basis were added to samples taken from a publicly owned anaerobic digester. The samples were first cultured in laboratory sized batch reactors. The twelve batch reactors were then sampled, and studied for periods of up to fifty-five days. The process variables that were monitored included COD (Chemical Oxygen Demand), TS (Total Solids), TVS (Total Volatile Solids) and the pH of the culture. Time and the initial sodium formate concentration level were the independent variables. Finally measurements were also made of the bacterial counts at the beginning and at the end of the fifty five day period. These experimental observations permitted partial identifications of the predominant bacterial colonies still viable in each of the twelve reactors used for each trial of the laboratory study.
Chemical Oxygen Demand (COD) measurements
To perform this measurement, a 5 ml of the sample from each of the 12 reactors is taken and diluted 10-fold to 50 ml. 5 ml of the now diluted sample is again diluted 10 fold to 50 ml. This double dilution represents a 100-fold dilution of the original sample. 2 ml of these diluted samples are put into standard COD test tubes. The test tubes are closed and shaken vigorously. The 13 (COD) test tubes (one is a control) are then heated to 150 deg. C for two hours. The UV spectrometer is calibrated by first analyzing the test tube with pure distilled water as the zero COD or control sample.
The sample test tubes are then analyzed for COD using UV spectrometer after inputting the method number and adjusting the frequency of UV rays to correspond to a sample with a high organic loading range. The readings that were obtained in units of mg/liter are multiplied by 100 to correct for the dilution procedure and to get COD concentration level for the original sample. COD is indicative of the organic substrate load level in the wastewater being treated or tested.
Municipal sludge from the city of Lubbock, Wastewater Treatment Plant was digested in 12 batch digesters. Using twelve batch reactors allowed the collection of control reactors data (i.e., no formate in the reactors) in triplicate, titration studies of increasing formate concentration, and duplicates/triplicates of varying formate concentration. Experiments were conducted in the laboratories of Texas Tech University.
The substrate taken was 2 parts of 50 g/liter sucrose solution mixed with 1 part of digested municipal sludge which acts as the seed material for incorporation of microbes into the reactors. The experiments were started with the following protocol. [drawing 1]

Compound: O=C[O-].[Na+] [sodium formate]
- COD Concentration (5000 ppm, 16 days): 30.4 g/L
- COD Concentration (5000 ppm, 24 days): 30.9 g/L
- COD Concentration (5000 ppm, 55 days): 34.3 g/L
- COD Concentration (10000 ppm, 0 Day (with formate addition)): 58.2 g/L and 69 g/L and 36.7 g/L
- COD Concentration (10000 ppm, 7 Day): 56.4 g/L and 44.3 g/L
- COD Concentration (10000 ppm, 1 days, listed as Format): 50.7 g/L and 52.3 g/L and 45.5 g/L
- COD Concentration (10000 ppm, 1 days, listed as Formate): 45.5 g/L
- COD Concentration (10000 ppm, 4 days): 47.3 g/L and 43.5 g/L and 43.2 g/L
- COD Concentration (10000 ppm, 9 days): 49.9 g/L and 51.6 g/L and 43.7 g/L
- COD Concentration (10000 ppm, 16 days): 38.2 g/L and 32 g/L and 40 g/L
- COD Concentration (10000 ppm, 24 days): 40.8 g/L and 37.1 g/L and 40 g/L
- COD Concentration (10000 ppm, 55 days): 49.7 g/L and 38.5 g/L and 32 g/L
- COD Concentration (100000 ppm, 0 Day (with formate addition)): 49 g/L and 64.4 g/L
- COD Concentration (100000 ppm, 7 Day): 74.9 g/L and 94.5 g/L
- COD Concentration (100000 ppm, 1 days, listed as Format): 121 g/L and 165 g/L
- COD Concentration (100000 ppm, 1 days, listed as Formate): 120.7 g/L and 165 g/L
- COD Concentration (100000 ppm, 4 days): 65.5 g/L and 87.1 g/L
- COD Concentration (100000 ppm, 9 days): 71 g/L and 89.6 g/L
- COD Concentration (100000 ppm, 16 days): 57.5 g/L and 67.1 g/L
- COD Concentration (100000 ppm, 24 days): 41.5 g/L and 25.6 g/L
- COD Concentration (100000 ppm, 55 days): 64.8 g/L and 73.9 g/L
- % (reduction of average COD versus 0 ppm) (7/1/99 run, 1000 ppm): 0.72%
- COD Concentration, Average (7/1/99 run, 1000 ppm, average of 3 reactors, 0 Day): 53.8 g/L
- COD Concentration, Average (7/1/99 run, 1000 ppm, average of 3 reactors, 7 Day): 61.43 g/L
- COD Concentration, Average (7/1/99 run, 1000 ppm, average of 3 reactors, 1 days): 58.3 g/L and 56.3 g/L
- COD Concentration, Average (7/1/99 run, 1000 ppm, average of 3 reactors, 4 days): 51.9 g/L
- COD Concentration, Average (7/1/99 run, 1000 ppm, average of 3 reactors, 9 days): 50.37 g/L
- COD Concentration, Average (7/1/99 run, 1000 ppm, average of 3 reactors, 16 days): 36.03 g/L
- COD Concentration, Average (7/1/99 run, 1000 ppm, average of 3 reactors, 24 days): 36.6 g/L
- COD Concentration, Average (7/1/99 run, 1000 ppm, average of 3 reactors, 55 days): 38.87 g/L
- % (reduction of average COD versus 0 ppm) (7/1/99 run, 5000 ppm): 10.3%
- COD Concentration, average over all sampling days (Averag) (7/1/99 run, 5000 ppm, 0 to 55 days): 43.5 g/L
- % (reduction of average COD versus 0 ppm) (7/1/99 run, 10000 ppm): 5.79%
- COD Concentration, Average (7/1/99 run, 10000 ppm, average of 3 reactors, 0 Day): 54.63 g/L
- COD Concentration, Average (7/1/99 run, 10000 ppm, average of 3 reactors, 7 Day): 52.37 g/L
- COD Concentration, Average (7/1/99 run, 10000 ppm, average of 3 reactors, 1 days): 49.5 g/L
- COD Concentration, Average (7/1/99 run, 10000 ppm, average of 3 reactors, 4 days): 44.67 g/L
- COD Concentration, Average (7/1/99 run, 10000 ppm, average of 3 reactors, 9 days): 48.4 g/L
- COD Concentration, Average (7/1/99 run, 10000 ppm, average of 3 reactors, 16 days): 36.73 g/L
- COD Concentration, Average (7/1/99 run, 10000 ppm, average of 3 reactors, 24 days): 39.3 g/L
- COD Concentration, Average (7/1/99 run, 10000 ppm, average of 3 reactors, 55 days): 40.07 g/L
- % (reduction of average COD versus 0 ppm) (7/1/99 run, 100000 ppm): −56.1%
- COD Concentration, Average (7/1/99 run, 100000 ppm, average of 2 reactors, 0 Day): 56.7 g/L
- COD Concentration, Average (7/1/99 run, 100000 ppm, average of 2 reactors, 7 Day): 84.7 g/L
- COD Concentration, Average (7/1/99 run, 100000 ppm, average of 2 reactors, 1 days): 143 g/L
- COD Concentration, Average (7/1/99 run, 100000 ppm, average of 2 reactors, 4 days): 76.3 g/L
- COD Concentration, Average (7/1/99 run, 100000 ppm, average of 2 reactors, 9 days): 80.3 g/L
- COD Concentration, Average (7/1/99 run, 100000 ppm, average of 2 reactors, 16 days): 62.3 g/L
- COD Concentration, Average (7/1/99 run, 100000 ppm, average of 2 reactors, 24 days): 33.55 g/L
- COD Concentration, Average (7/1/99 run, 100000 ppm, average of 2 reactors, 55 days): 69.35 g/L
- COD reduction due to the formate (FIG. 2) (25 to 8,750 ppm, 0, 15 and 30 days): ~10%
- average percent range in improvement of measured COD levels (domestic sewage): ≤ 12%
- increase in COD reduction (FIG. 3) (from 0 formate up to about 5,000-7,000 ppm): about 10%
